Measured values from patent US20240109898A1, “SUBSTITUTED PYRAZOLO[1,5-A]PYRIMIDINE-7-AMINE DERIVATIVES, COMPOSITIONS AND PHARMACEUTICAL USES THEREOF” (SHANGHAI HAIYAN PHARMACEUTICAL TECHNOLOGY CO., LTD., priority 2021, published 2024).

Assays:
[1] = In vivo pharmacokinetics in mice; conditions: mouse, plasma, po, male ICR mice, intragastric 10 mg/kg; for AUC(0-t): read-out: Area under the oral curve AUC0-t; for Cmax: read-out: Oral maximum plasma concentration Cmax(ng/mL)
Experimental: To investigate the pharmacokinetic behaviors of the compounds according to the present disclosure in mice and evaluate the pharmacokinetic characteristics thereof, the plasma concentrations of the compounds according to the present disclosure in mice at different time points after intravenous injection and intragastric administration of the compounds were determined by LC/MS/MS.
Experimental Protocol: • Experimental animals: healthy adult male ICR mice (12 mice with body weight of 30-40 g, free water and diet for intravenous injection group, and fasted overnight for intragastric administration group, free water and diet after 4 hours of administration) were provided by Beijing Vital River Laboratory Animal Co. LTD; • Administration route and dosage: the ICR mice were administrated intravenously via the tail vein (2 mg/kg, 5% DMSO, pH 4.5 20% Captisol) and intragastrically (10 mg/kg, 5% DMSO, pH 4.5 20% Captisol).
Blood sample collection: prior to the administration, animals satisfying the experimental requirements were selected, weighed and marked. Before collecting blood samples, the mice were tied together, and the blood of each administrated mouse was collected at the respective scheduled time points (for the intravenous administration, the blood was collected at 0.083 h, 0.25 h, 0.5 h, 1 h, 2 h, 4 h, 6 h, 7.5 h, and 24 h after the administration, respectively, for a total of 9 time points; for the intragastric administration, the blood was collected at 0.083 h, 0.25 h, 0.5 h, 1 h, 2 h, 4 h, 6 h, 7.5 h, and 24 h after the administration, respectively, for a total of 9 time points), about 100 μL of blood was collected from orbit. The blood was transferred to a 1.5 mL tube, which was pre-filled with K2EDTA, centrifuged for 4 minutes (8000 rpm, 4° C.), and the plasma removed within 15 minutes, which all the steps were finished in 15 minutes after the collection of blood samples. All samples were stored in −20° C. refrigerator before sample analysis. The drug concentrations were determined using the LC/MS/MS method, the pharmacokinetic parameters of the compounds of some examples of the present disclosure in mice at the same dosage and administration routes were lists in Table 3: […]

[2] = system: MV4-11 acute myeloid leukemia xenografts; test: In vivo pharmacodynamic assay, MV4-11 subcutaneous xenograft; parameters: species or system BALB/c nude mice; conditions: Table 5, oral, once a day
Experimental: In vivo pharmacodynamic assays were performed on (CDX)BALB/c nude mice implanted subcutaneously with MV4-11 acute myeloid leukemia […] xenografts derived from human tumor cell lines.
Experimental protocol: BALB/c nude mice, female, 6-10 weeks old, with weight of approximately 20-23 grams, were maintained in a specific pathogen-free environment, 5 mice in each cage, and 2 cages with 10 mice as one group. All the cages, bedding and water were disinfected before use. All animals had free access to a standard certified commercial laboratory diet. […] Each mouse was implanted subcutaneously with tumor cells (1×10^7 0.1 ml+Matrigel 0.1 ml) in the right flank for tumor growth. When the mean tumor volume reached approximately 165 mm^3, the tumors were randomly grouped according to body weight and tumor volume, and the administration of the compounds began. Test compounds were administered via oral gavage daily. Antitumor efficacy was determined by dividing the mean tumor volume increase of the animals treated with the compound by the mean tumor volume increase of untreated animals.
Tumor volumes were measured twice a week with two-dimensional calipers, and volumes were measured in cubic millimeters. Tumor volume TV=0.5a×b^2, where a represent a long diameter of the tumor and b represents a short diameter of the tumor.
Relative tumor proliferation rate T/C (%), i.e., a percentage value of relative tumor volume of treatment group to relative tumor volume of control group at a certain time point, can be calculated based on an equation of T/C %=TRTV/CRTV×100 (TRTV: mean RTV in treatment group; CRTV: mean RTV in solvent control group; RTV=Vt/V0, V0 being the tumor volume of the animal at the time of grouping, Vt being the tumor volume of the animal after treatment).
Body weight change (%) of tumor-bearing animals was calculated as follows:
(weight at measurement−weight at grouping)/weight at grouping×100.

[3] = target: CDK9/CycT (Homo sapiens (Human), UniProt P50750); test: LANCE Ultra kinase activity inhibition assay, CDK9/CycT; format: biochemical; conditions: ATP 10 μM, highest compound concentration 1 μM
Experimental: (§1) In the following LANCE Ultra test methods, kinase reagents were purchased from Carna Bioscience, reaction substrates and detection reagents were purchased from PerkinElmer, and the remaining reagents were purchased from Thermo scientific.
The inhibiting effects on the kinase activity of CDK1/CycB (Carna bioscience, #04-102), CDK2/CycA (Carna bioscience, #04-103) and CDK9/CycT (Carna bioscience, #04-110) were determined by using LANCE Ultra method.
The kinase activity test was performed using a system (10 μL) containing the following components: substrate diluent prepared by mixing CDK kinase diluent, Ulight-Myelic basic protein (Perkin Elmer, #TRF-0109, hereinafter referred to as U-MBP) and ATP (Thermo scientific, #PV3227); and the compounds (i.e., analyte) prepared in the examples of the present disclosure. The assay for each kinase includes three test groups, i.e., a background group (Blank), a non-inhibition group (PC), and compound testing group (Test). The components included in each test group were as follows:
(§2) Working concentrations of the respective components of the Test groups in different kinase reactions were as follows.
(§3) Compounds: 10 mM of the compound to be tested was dissolved at room temperature and diluted with DMSO to gradient concentrations, followed by diluting with deionized water to prepare a 4× working solution of the compound, and the content of DMSO was 2%. The highest concentration of compound used in the CDK1 and CDK2 assays was 10 μM, and that in CDK9 assay was 1 μM.
1.33×reaction buffer: the components include 26.7 mM of MOPS, 6.67 mM of MgCl2, and 0.0133% Tween-20, which were stored in a 4° C. refrigerator and protected from light after preparation. Freshly prepared DTT was added to a final concentration of 5.33 mM before use.
(§4) The working concentration of DMSO in the reaction was 0.5%.
(§5) The above-mentioned components, after being mixed, were placed on a shaker and incubated at room temperature in the dark for 1 h. 10 μL of test solution was then added to all test groups (including Blank, PC and Test groups).
10 μL of test solution contains the following components: 16 mM of EDTA (Thermo scientific, #15575), 1 nM of phosphorylated U-MBP protein antibody (Perkin Elmer, #TRF-0201), and 1× detection damping fluid (Perkin Elmer, #CR97-100).
After the test solution was added, the solution was placed on a shaker and continually incubated at room temperature for 1 h in the dark. At the end of incubation, Victor X5 fluorescence microplate reader of Perkin Elmer was used to read the signal; the wavelength of excitation light was 320 nm, and the wavelengths of emission light were 615 nm and 665 nm. The inhibition rate was calculated as below.
1. For all groups, a value of 665 nm/615 nm (hereinafter referred to as Ratio) was calculated, and an inhibition rate was calculated based on the Ratio of each group;
(§6) 2. Inhibition rate=(PCRatio-TestRatio)/(PCRatio-BlankRatio)*100%; and
(§7) 3. XLFIT 5.0 software (IDBS, UK) was used to fit a graph by using the logarithmic value of the compound concentration as the X-axis and the inhibition rater as the Y-axis, and a four-parameter model was used to calculate the half inhibitory concentration IC50 of the compound.

[4] = target: CDK1/CycB (Homo sapiens (Human), UniProt P06493); test: LANCE Ultra kinase activity inhibition assay, CDK1/CycB; format: biochemical; conditions: ATP 4 μM, highest compound concentration 10 μM
Excerpt: as §1
(§8) The assay for each kinase includes three test groups, i.e., a background group (Blank), a non-inhibition group (PC), and compound testing group (Test). The components included in each test group were as follows:
as §2, §3, §4, §5
(§9) After the test solution was added, the solution was placed on a shaker and continually incubated at room temperature for 1 h in the dark. […] The inhibition rate was calculated as below.
as §6, §7

[5] = target: CDK2/CycA (Homo sapiens (Human), UniProt P24941); test: LANCE Ultra kinase activity inhibition assay, CDK2/CycA; format: biochemical; conditions: ATP 10 μM, highest compound concentration 10 μM
Excerpt: as §1, §8, §2, §3, §4, §5, §9, §6, §7

Chain of CDK1/CycB (P06493 whole entry): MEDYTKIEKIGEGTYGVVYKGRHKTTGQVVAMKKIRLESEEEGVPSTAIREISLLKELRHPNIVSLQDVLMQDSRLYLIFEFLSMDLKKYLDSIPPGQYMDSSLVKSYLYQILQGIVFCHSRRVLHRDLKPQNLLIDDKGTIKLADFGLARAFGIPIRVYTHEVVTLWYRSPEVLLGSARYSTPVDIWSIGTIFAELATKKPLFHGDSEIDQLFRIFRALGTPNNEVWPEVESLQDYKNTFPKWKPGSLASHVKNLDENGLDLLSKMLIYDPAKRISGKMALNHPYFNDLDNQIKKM
Chain of CDK1/CycB (P14635 whole entry partner): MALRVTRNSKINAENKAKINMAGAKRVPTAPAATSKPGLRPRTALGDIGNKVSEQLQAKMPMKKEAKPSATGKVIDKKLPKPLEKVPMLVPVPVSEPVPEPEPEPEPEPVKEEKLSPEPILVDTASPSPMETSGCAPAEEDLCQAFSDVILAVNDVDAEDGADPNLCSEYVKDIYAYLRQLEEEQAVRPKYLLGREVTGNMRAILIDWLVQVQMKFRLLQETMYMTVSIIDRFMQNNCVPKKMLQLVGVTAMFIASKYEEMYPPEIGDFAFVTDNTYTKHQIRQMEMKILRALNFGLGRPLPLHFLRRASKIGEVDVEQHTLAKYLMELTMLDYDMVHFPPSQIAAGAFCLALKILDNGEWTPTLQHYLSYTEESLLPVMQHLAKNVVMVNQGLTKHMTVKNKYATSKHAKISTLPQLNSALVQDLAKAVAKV
Chain of CDK9/CycT (P50750 whole entry): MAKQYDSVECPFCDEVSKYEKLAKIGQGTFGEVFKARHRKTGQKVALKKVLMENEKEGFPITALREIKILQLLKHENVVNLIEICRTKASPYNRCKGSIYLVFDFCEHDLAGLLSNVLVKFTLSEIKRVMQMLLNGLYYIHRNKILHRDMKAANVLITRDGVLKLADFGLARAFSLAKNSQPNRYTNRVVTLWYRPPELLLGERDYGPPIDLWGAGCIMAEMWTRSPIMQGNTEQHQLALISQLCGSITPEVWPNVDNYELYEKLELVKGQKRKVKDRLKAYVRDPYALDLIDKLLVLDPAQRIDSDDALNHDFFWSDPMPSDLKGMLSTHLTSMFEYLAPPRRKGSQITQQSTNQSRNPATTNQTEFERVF
Chain of CDK9/CycT (O60563 whole entry partner): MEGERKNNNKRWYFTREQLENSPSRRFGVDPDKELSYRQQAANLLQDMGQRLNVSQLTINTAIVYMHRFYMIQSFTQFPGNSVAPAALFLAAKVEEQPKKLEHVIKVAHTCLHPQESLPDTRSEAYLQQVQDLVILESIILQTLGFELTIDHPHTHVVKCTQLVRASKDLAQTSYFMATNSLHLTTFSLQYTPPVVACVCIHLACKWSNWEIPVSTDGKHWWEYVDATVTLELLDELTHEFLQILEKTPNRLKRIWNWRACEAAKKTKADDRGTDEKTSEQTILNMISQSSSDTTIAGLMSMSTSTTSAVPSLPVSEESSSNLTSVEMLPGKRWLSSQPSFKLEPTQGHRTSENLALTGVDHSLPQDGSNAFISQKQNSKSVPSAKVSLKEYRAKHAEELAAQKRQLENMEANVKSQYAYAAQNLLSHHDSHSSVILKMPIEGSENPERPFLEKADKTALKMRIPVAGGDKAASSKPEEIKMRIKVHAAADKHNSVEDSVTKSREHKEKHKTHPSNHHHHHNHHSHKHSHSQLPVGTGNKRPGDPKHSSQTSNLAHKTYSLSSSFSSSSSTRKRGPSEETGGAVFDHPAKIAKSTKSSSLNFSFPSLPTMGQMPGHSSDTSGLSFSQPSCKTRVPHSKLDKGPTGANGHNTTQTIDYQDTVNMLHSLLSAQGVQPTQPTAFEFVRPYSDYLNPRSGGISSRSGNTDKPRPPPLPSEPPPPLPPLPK

For `CCC(CC)c1cc(N[C@H]2CC[C@H](N)C2)n2nccc2n1` [Compound D, reference compound], the AUC(0-t) [1] was 1190 ng·h/mL, the Cmax [1] was 433 ng/mL and the “Average tumor weight” value ([2]; 12.5 mpk) was 0.43 g. The “T/C(%)” value ([2]; 12.5 mpk) was 35.91%, the “Average tumor weight” value ([2]; 25 mpk) was 0.04 g and the “T/C(%)” value ([2]; 25 mpk) was 2.90%.
For `C[C@H](c1cc(N[C@H]2CC[C@H](N)C2)n2nccc2n1)C1CC1` [Compound Z-5-2], the IC50 [3] was 0.007 µM, the AUC(0-t) [1] was 1700 ng·h/mL and the Cmax [1] was 690 ng/mL. The “Average tumor weight” value ([2]; 5 mpk) was 0.72 g, the “T/C(%)” value ([2]; 5 mpk) was 59.25% and the “Average tumor weight” value ([2]; 10 mpk) was 0.04 g. The “T/C(%)” value ([2]; 10 mpk) was 3.45%.
With `Cc1cnn2c(N[C@H]3CC[C@H](N)C3)cc(C(C3CC3)C3CC3)nc12` [Compound Z-9] the IC50 [3] was 0.008 µM, the IC50 [4] was 1.04 µM and the IC50 [5] was 1.55 µM. For the same molecule, the AUC(0-t) [1] was 7860 ng·h/mL and the Cmax [1] was 740 ng/mL.
With `C[C@H](c1cc(N[C@H]2CC[C@H](N)C2)n2nccc2n1)C1CCC1` [Compound Z-11-P1] the AUC(0-t) [1] was 2960 ng·h/mL and the Cmax [1] was 379 ng/mL.
`Cc1cnn2c(N[C@H]3CC[C@H](N)C3)cc([C@@H](C)C3CC3)nc12` [Compound Z-32-P2] showed an IC50 [3] of 0.056 µM, an IC50 [4] of 8.22 µM and an IC50 [5] of 6.82 µM. It also gave an AUC(0-t) [1] of 9410 ng·h/mL and a Cmax [1] of 696 ng/mL.
In the case of `C=CC(C)(C)c1cc(N[C@H]2CC[C@H](N)C2)n2ncc(Cl)c2n1` [Compound Z-56], the IC50 [3] is reported as 0.013 µM, the IC50 [4] is reported as 2.48 µM and the IC50 [5] is reported as 3.78 µM. It also gave an AUC(0-t) [1] of 6090 ng·h/mL and a Cmax [1] of 409 ng/mL.
With `C[C@H](c1cc(N[C@H]2C[C@H](N)C2)n2nccc2n1)C1CC1` [Compound Z-62-P1] the IC50 [3] was 0.01 µM, the IC50 [4] was 1.71 µM and the IC50 [5] was 1.97 µM. The AUC(0-t) [1] was 2060 ng·h/mL and the Cmax [1] was 786 ng/mL.
